Data: patent US20240252476A1, “LPA1 ANTAGONISTS FOR TREATING INTERSTITIAL LUNG DISEASE” (Bristol-Myers Squibb Company, priority 2022, published 2024)

Key:
[1] = Effect of single and multiple ascending doses of Compound B on blood pressure; format: in vivo
Excerpt: and is described in U.S. Patent Application Publication No. 2010/0311799. Single ascending dose of Compound B caused a drop in blood pressure starting ˜1.25 hr post dose (FIG. 5).

[2] = test system: patients with IPF; details: cited from earlier work
[3] = test system: patients with PPF; details: 52-week study period; cited from earlier work
[4] = Phase 1 multiple ascending dose study (Part B), blood pressure in healthy participants; format: in vivo, human; details: MAD, 14-day treatment period
Description: (§1) The study was performed in 3 parts in 112 healthy male and female participants, including 24 Japanese participants. Female participants were to be not of childbearing potential. The present study was designed to evaluate the safety and tolerability, PK, and exploratory PD of an oral suspension of Compound A. Parts A and B (Cohort B1 only) enrolled healthy participants and was conducted at a site in The Netherlands and Part B (Cohort B2 to B5) enrolled healthy non-Japanese participants and was conducted at a site in the United Kingdom (UK). Part C enrolled healthy Japanese participants and was conducted at the same site in the UK.
Part B was a MAD study in a planned number of 6 sequential dose escalation cohorts (10 mg QD, 30 mg QD, 30 mg BID, 60 mg BID, 125 mg BID, and ≤250 mg BID) of 8 healthy participants (6 active+2 placebo) each, under fasted conditions. However, Cohort B6 (≤250 mg BID) was cancelled because sufficient safety and PK data had been obtained at doses up to 125 mg BID. […]
Physical examinations, vital sign measurements (including orthostasis testing in Cohort A6, Cohort B3 to B5, and C1 to C3 at selected time points), 12-lead electrocardiogram (ECG), and clinical laboratory evaluations were performed at selected times throughout the study. […] Participants were closely monitored for adverse events (AEs). […]

[5] = Phase 1 multiple ascending dose study (Part C), blood pressure in healthy Japanese participants; format: in vivo, human
Description: as §1
Part C was a MAD study in 3 sequential dose escalation cohorts (30 mg BID, 60 mg BID, and 90 mg BID) of 8 healthy Japanese participants (6 active+2 placebo) each. Eligible participants in Cohorts C1 to C3 received study drug (Compound A or placebo) administered orally for 14 days.
Physical examinations, vital sign measurements (including orthostasis testing in Cohort A6, Cohort B3 to B5, and C1 to C3 at selected time points), 12-lead electrocardiogram (ECG), and clinical laboratory evaluations were performed at selected times throughout the study. In addition, Holter monitoring was performed for the first 24 hours post dose on Day 1 in Part A (not in FE/pH cohort), and also for the first 24 hours post dose on Day 1 and Day 14 in Parts B and C. Participants were closely monitored for adverse events (AEs). Blood samples were collected for up to 14 days (follow-up visit) after (last) study drug administration for PK analysis. In addition, blood and urine were collected for exploratory biomarker assessments and for biobanking of samples for potential analyses. Urine was collected for potential PK analysis for up to 96 hours after a single dose of Compound A or placebo was administered in the SAD part, and for up to 24 hours after the first (morning) dose of study drug on Day 1 and for up to 24 hours after the last (morning) dose of study drug on Day 14 in the MAD parts.

[6] = test system: participants with IPF; test: Phase 2 study, IPF cohort: efficacy (ppFVC, FVC); format: in vivo, human; details: for Rate of change in ppFVC over 26 weeks: 60-mg arm
Description: A total of 278 participants with IPF were randomized and 276 participants were treated as of theinal analyses data cut-off (4 Aug. 2022). Male and female participants ≥40 years of age with IPF and percent predicted forced vital capacity (ppFVC) ≥40% and percent predicted DLCO (ppDLCO) ≥25%; diagnosed within 7 years of screening; having a centrally-read chest HRCT obtained at screening that was consistent with UIP or probable UIP, or having a lung biopsy consistent with UIP were eligible to enter the study. The mean baseline ppFVC for all subjects was 76.5%. In the primary IPF cohort, participants were randomized (1:1:1) to receive 30 mg or 60 mg Compound A or placebo (PBO) twice daily for 26 weeks. Participants were stratified by standard of care (SoC) IPF therapy (pirfenidone versus nintedanib versus none) and region (Japan versus Rest of World) at randomization.
The primary objective of the study was to determine the rate of change in ppFVC from baseline to Week 26. The primary objective was evaluated with a two estimand framework to handle the intercurrent event of dose reduction to 10 mg BID or matching PBO when pre-specified low BP criteria is met. The primary estimand is adopted to estimate treatment effect when dose reduction is implemented. The supplementary estimand is adopted to estimate the effect of treatment without dose reduction.
Analysis Strategy: The primary estimand was to evaluate the efficacy of Compound A at 30 mg or 60 mg twice daily, compared to PBO in IPF participants who met the enrollment criteria, with or without use of SoC. The rate of decline in ppFVC (%) from baseline to Week 26 was compared using the difference between each dose and PBO as a population level summary regardless of dose reduction or treatment discontinuation for any reason (treatment policy strategy).
Analysis Strategy: The supplementary estimand for the primary objective is to evaluate the efficacy of Compound A at 30 mg or 60 mg twice daily without dose reduction, compared to the PBO in IPF subjects who met the enrollment criteria, with or without use of SoC. The rate of decline in ppFVC (%) from baseline to Week 26 has been compared using the difference between each dose and PBO as a population level summary regardless of treatment discontinuation for any reason (treatment policy strategy). In the event of dose reduction, data collected after dose reduction will not be considered relevant to the treatment effect of interest and therefore, will be treated as missing (while-on-treatment strategy).

[7] = test system: participants with PPF; test: Phase 2 study, PPF cohort: efficacy (ppFVC, FVC); format: in vivo, human; details: for Relative reduction: 60 mg v placebo
Description: (§2) A total of 123 participants with PPF were randomized. Participants (age ≥21 years) were randomized (1:1:1) to receive 30 mg or 60 mg Compound A or PBO twice daily for 26 weeks. […] Immunosuppressive medications (mycophenolate mofetil, mycophenolic acid, azathioprine and/or tacrolimus) were permitted only if dosing is stable for ≥6 months prior to screening. If receiving antifibrotic agents pirfenidone or nintedanib, patients had to receive a stable dosage for ≥3 months prior to screening and during the screening period; if not receiving pirfenidone or nintedanib, patients had to be naive to both drugs or not have received either 4 weeks prior to Day 1. A total of 47 (38.2%) subjects were receiving antifibrotic treatment (with or without immunosuppression therapy). Of those subjects, 34 were being treated with nintedanib and 13 with pirfenidone. Participants were stratified by usual interstitial pneumonia (UIP) pattern (presence versus absence) and background therapy (antifibrotics +/−ILD-targeted immunosuppression versus ILD-targeted immunosuppression alone versus none).UIP pattern was present in 52% of subjects and unclassifiable ILD was he most common disease categorization.
The study was not powered to detect statistical significance (no formal testing). No target effect size was defined in the study design. There were two estimand approaches for analysis:
Treatment Policy: Effect of treatment with dose reduction as part of treatment regimen.
While-On Treatment: Effect of treatment without dose reduction.
The main efficacy endpoint, rate of FVC decline (in […]) from baseline to wk-26 in the PPF cohort, was estimated using a linear mixed-effects model utilizing all FVC timepoints. It was analyzed under a primary estimand (utilizing all data, treatment policy strategy), and under supplementary estimand (utilizing all data up to the point of dose reduction, while-on-treatment strategy). Analysis was performed in the overall population as well as in sub-groups by 1) background anti-fibrotic treatment or not 2) UIP radiographic pattern (presence or not). The mean baseline ppFVC was 66.700 for the PPF cohort.

[8] = Phase 2 study, PPF cohort: safety and blood pressure reduction criteria; format: in vivo, human
Description: as §2
Patient is experiencing any of the following, confirmed by retest within 15 minutes: • Seated systolic blood pressure <85 mmHg • Seated diastolic blood pressure <55 mmHg • Orthostatic hypotension
Patient is experiencing symptoms that, in the investigator's opinion, could be associated with a reduction in blood pressure and is also experiencing at least one of the following, confirmed by retest within 15 minutes: • Seated systolic blood pressure <100 mmHg or seated diastolic blood pressure <60 mmHg • Decrease of seated systolic blood pressure of ≥20 mmHg from the previous visit or decrease of seated diastolic blood pressure of ≥10 mmHg from the previous visit • Orthostatic hypotension • Orthostatic tachycardia

In the case of `Cc1noc(-c2ccc(-c3ccc(C4(C(=O)O)CC4)cc3)cc2)c1NC(=O)O[C@H](C)c1ccccc1` [Compound B, sodium (R)-1-(4′-(3-methyl-4-(((1-phenylethoxy)carbonyl)amino)isoxazol-5-yl)-[1,1′-biphenyl]-4-yl)cyclopropane-1-carboxylate], the “Normalization of blood pressure” value ([1]; multiple days of dosing (FIG. 6)) is reported as roughly 3 days and the “Start of drop in blood pressure post dose” value ([1]; single ascending dose (FIG. 5)) is reported as roughly 1.25 h.

For `COC(=O)c1ccc2c(c1)NC(=O)/C2=C(\Nc1ccc(N(C)C(=O)CN2CCN(C)CC2)cc1)c1ccccc1` [nintedanib], the “Decline in lung function” value [2] is listed as “significantly reduce the decline in lung function” and the “Progression of lung fibrosis vs placebo (annual rate of decline in FVC)” value [3] is listed as “slower progression of lung fibrosis than those who received placebo”.

For `Cc1ccc(=O)n(-c2ccccc2)c1` [pirfenidone], the “Decline in lung function” value [2] is given as “significantly reduce the decline in lung function”.

For `CCCN(C)C(=O)OCc1c(-c2ccc(O[C@H]3CCC[C@H](C(=O)O)C3)c(C)n2)nnn1C` [Compound A, (1S,3S)-3-((2-methyl-6-(1-methyl-5-(((methyl(propyl)carbamoyl)-oxy)methyl)-1H-1,2,3-triazol-4-yl)pyridin-3-yl)oxy)cyclohexane-1-carboxylic acid], the “Magnitude of BP reductions with repeated dosing” value [4] was “no clear changes in the magnitude of BP reductions with repeated dosing”, the “DBP, Baseline” value ([5]; Japanese MAD 30 mg BID (C1)) was 8.8 ± 5.12 mmHg and the “DBP, Reduction” value ([5]; Japanese MAD 30 mg BID (C1)) was 72.2 ± 3.87 mmHg. The “DBP, Baseline” value ([5]; Japanese MAD 60 mg BID (C2)) was 8.2 ± 10.40 mmHg, the “DBP, Reduction” value ([5]; Japanese MAD 60 mg BID (C2)) was 73.8 ± 6.18 mmHg and the “DBP, Baseline” value ([5]; Japanese MAD 90 mg BID) was 8.0 ± 8.22 mmHg. The “DBP, Reduction” value ([5]; Japanese MAD 90 mg BID) was 70.7 ± 7.58 mmHg, the “Dose dependence of BP reduction” value ([5]; Japanese MAD cohorts) was “no clear Compound A dose-dependent BP reduction trend” and the “Treatment response vs PBO (rate of decline of ppFVC and FVC)” value ([6]; 60 mg BID, Week 26, overall population) was “favorable treatment responses”. The “Relative treatment benefit vs PBO (ppFVC)” value (“Relative treatment benefit” below) ([6]; 60 mg BID, primary estimand, not on background SoC) was 113%, the “Relative treatment benefit” value ([6]; 60 mg BID, primary estimand, on background SoC) was 39% and the “Relative treatment benefit” value ([6]; 60 mg BID, supplementary estimand, not on background SoC) was 123%. For the same molecule, the “Relative treatment benefit” value ([6]; 60 mg BID, supplementary estimand, on background SoC) was 44%, the “Rate of change in ppFVC over 26 weeks” value ([6]; treatment policy strategy) was −1.2% and the “Rate of change in ppFVC over 26 weeks” value ([6]; while-on-treatment strategy) was −1.1%. For the same molecule, the “Treatment difference in rate of change in ppFVC, 60-mg arm vs placebo” value ([6]; treatment policy strategy) was 1.4%, the “Treatment difference in rate of change in ppFVC, 60-mg arm vs placebo” value ([6]; while-on-treatment strategy) was 1.8% and the Relative reduction ([7]; Anti-fibrotic subgroup) was 75%. The Relative reduction ([7]; No antifibrotic subgroup) was 63%, the Relative reduction ([7]; Non UIP subgroup) was 84% and the Relative reduction ([7]; UIP subgroup) was 54%. The Relative reduction ([7]; overall) was 69%, the “Rate of change in ppFVC over 26 weeks” value ([7]; 30-mg arm, treatment policy strategy) was −2.7% and the “Rate of change in ppFVC over 26 weeks” value ([7]; 30-mg arm, while-on-treatment strategy) was −2.5%. For the same molecule, the “Rate of change in ppFVC over 26 weeks” value ([7]; 60-mg arm, treatment policy strategy) was −1.1%, the “Rate of change in ppFVC over 26 weeks” value ([7]; 60-mg arm, while-on-treatment strategy) was −1.3% and the “Treatment difference 60 mg v placebo in rate of decline in ppFVC” value ([7]; Non UIP subgroup, baseline to Week 26) was 3.80. The “Treatment difference in rate of change in ppFVC, 60-mg vs placebo” value ([7]; treatment policy strategy) was 3.2%, the “Treatment difference in rate of change in ppFVC, 60-mg vs placebo” value ([7]; while-on-treatment strategy) was 2.9% and the “Low BP thresholds ("events")” value ([8]; 30 mg) was 30%. For the same molecule, the “Deaths due to TEAEs” value ([8]; 30 mg (n = 40)) was 0 no, the Dizziness ([8]; 30 mg (n = 40)) was 0 no and the Hypertension ([8]; 30 mg (n = 40)) was 0 no. The “Deaths due to TEAEs” value ([8]; 60 mg (n = 42)) was 0 no, the “Discontinuations due to TEAEs” value ([8]; 60 mg (n = 42)) was 0 no and the Dyspnea ([8]; 60 mg (n = 42)) was 0 no. For the same molecule, the Rash ([8]; 60 mg (n = 42)) was 0 no and the Vomiting ([8]; 60 mg (n = 42)) was 0 no.
